Measured values from US20250195530A1, “POLQ INHIBITORS” (ASTRAZENECA AB, priority 2022, published 2025).
Read-outs that look alike come from different tables or passages of the source. Each block holds one compound with its values, some of them ahead of it.

Columns and labels:
DLD-1 BRCA2−/− cells = experiment: Homologous recombination synthetic lethal inhibition of proliferation, DLD-1 BRCA2-/- (Cell Titre Glo 3D); assay type: cell-based; conditions: Homo sapiens
Summary of the method: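 DLD-1 BRCA2−/− (3,000 cells/mL) and parental DLD-1 (1,500 cells/mL) cells in phenol red-free RPMI 1640 with 10% FBS were exposed to a 10-point, three-fold compound series from 10 μM to 0.51 nM at 37 °C, 5% CO2. Medium and compound were replenished on day 6. CellTiter-Glo 3D luminescence was read on day 7 (DLD-1) or day 12 (BRCA2−/−), and IC50 was taken as 50% reduction of maximum signal.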

DLD-1 cells = experiment: Inhibition of proliferation, DLD-1 BRCA2 wt control (Cell Titre Glo 3D); assay type: cell-based; conditions: Homo sapiens
Excerpt: This assay identifies anti-proliferative effects of POLQ compounds in the homologous recombination deficient colorectal cell line DLD-1 BRCA2−/− over 8-9 population doublings (7 days for DLD-1 and 12 days for DLD-1 BRCA2−/−). DLD1 BRCA2 wt are used as a control to detect cell toxic effects not specific to homologous recombination deficiency.
DLD-1 BRCA2−/− and DLD-1 cells were kept in continuous culture in Assay Medium (RPMI 1640 phenol red free (Sigma R7509) containing 1% GlutaMAX (Gibco 35050) and 10% Foetal Bovine Serum (Gibco 10270-106)). On the day of the assay cells in culture of ˜80-90% confluent were used. Cell monolayers were washed with 10 mL PBS, then removed and added 2 mL TrypLE Express (Gibco 12604). The cells with TrypLE Express were incubated for 5 minutes in cell culture incubator and then the detached cells resuspend in 15 mL Assay Medium. Cells were counted using a ViCell and the cell images were monitored for clumps of cells, ideally they should be single or <3 cell clusters. The cells were diluted to 3,000 cells/mL of DLD-1 BRCA2−/− and 1,500 cells/mL of DLD-1 in Assay Medium and 100 μL added per well of transparent bottomed, black, tissue culture-treated 96-well plates (CoStar, No. 3904) Assay Ready Plates. The Assay Ready Plates contain a 10 point 10 μM to 0.51 nM dose range with three-fold dilutions in DMSO with a final volume of 100 nL. The plates were incubated at 37° C. with 5% C02 for 6 days. On day 6, 100 μL/well of Assay Medium was added to duplicate Assay Ready Plates. 90 μL of culture medium was removed from the cell plates and replenished with the Assay Media and compounds from the duplicate Assay Ready Plates using the Bravo. The plates were further incubated at 37° C. with 5% CO2. On day 7 the plates containing DLD-1 and Cell Titre Glo 3D (Promega G9683) were equilibrated to room temperature, then 60 μL of Cell Titre Glo 3D was added per well and incubated on a shaking platform for 30 min. Plates were read on the Envision measuring luminescence for 1 second per well. On day 12 the plates containing DLD-1 BRCA2−/− cells and Cell Titre Glo 3D (Promega G9683) were equilibrated to room temperature, then 60 μL Cell Titre Glo 3D added per well and incubated on a shaking platform for 30 min. Plates were read on the Envision measuring luminescence for 1 second per well. The data was exported into a suitable software package (such as Genedata) to perform curve fitting analysis. Inhibition of cell proliferation was expressed as an IC5o value and was determined by calculation of the concentration of compound that was required to give a 50% reduction of the average maximum Total Intensity signal.

[1] = DLD-1, first proliferation column (c5), DLD-1 BRCA2-/-, read-out: POLQ PD Prolif Lumin (converted)
[2] = DLD-1, second proliferation column (c6), DLD-1 BRCA2 wt control, read-out: POLQ PD Prolif Lumin (converted)
[3] = DLD-1, DLD-1 BRCA2 −/−, mean, read-out: POLQ PD Prolif Lumin BRCA2 −/− mean pIC50 (converted)
[4] = DLD-1, DLD1 BRCA2 wt, mean, read-out: POLQ PD Prolif Lumin DLD1 mean pIC50 (converted)
[5] = DLD-1, DLD-1 BRCA2-/- proliferation, column head only partly shown, read-out: POLQ PD Prolif Lumin (converted)
[6] = DLD-1, DLD-1 BRCA2 wt control proliferation, column head only partly shown, read-out: POLQ PD Prolif Lumin (converted)
[7] = DLD-1, first proliferation column (c5), taken as DLD-1 BRCA2-/-, read-out: POLQ PD Prolif Lumin (converted)
[8] = DLD-1, second proliferation column (c6), taken as DLD-1 BRCA2 wt, read-out: POLQ PD Prolif Lumin (converted)
[9] = DLD-1, 288 h, DLD-1 BRCA2−/− cells, 12 days, read-out: POLQ PD Prolif Lumin BRCA2 −/− mean pIC50 (converted)
[10] = DLD-1, 168 h, DLD-1 BRCA2 wt cells, 7 days, read-out: POLQ PD Prolif Lumin DLD1 mean pIC50 (converted)

Structure (SMILES): Cc1ccnc(Cn2c(-c3ccc(CC(=O)N4CC5CC(C4)N5)cc3Cl)nc3c(OC4(C)CC4)ncnc32)c1 [Example T555, 1-(3,6-diazabicyclo[3.1.1]heptan-3-yl)-2-(3-chloro-4-(6-(1-methylcyclopropoxy)-9-((4-methylpyridin-2-yl)methyl)-9H-purin-8-yl)phenyl)ethan-1-one]
IC50 (DLD-1 BRCA2−/− cells; [1]): > 7940 nM
IC50 (DLD-1 cells; [2]): > 10000 nM

IC50 (DLD-1 cells; [4]): > 10000 nM
Structure (SMILES): COc1ccc(C)cc1Cn1c(-c2cccc(OCCCOCC(=O)O)c2Cl)nc2c(OC3(C)CC3)ncnc21 [Example U93, 2-(3-(2-chloro-3-(9-(2-methoxy-5-methylbenzyl)-6-(1-methylcyclopropoxy)-9H-purin-8-yl)phenoxy)propoxy)acetic acid]
IC50 (DLD-1 BRCA2−/− cells; [3]): 12.6 nM

IC50 (DLD-1 cells; [6]): > 10000 nM
Structure (SMILES): CC1(Oc2ncnc3c2nc(-c2ccc(OCc4nc(C(=O)O)cs4)cc2Cl)n3Cc2cccc(Cl)c2)CC1 [Example T250, 2-((3-chloro-4-(9-(3-chlorobenzyl)-6-(1-methylcyclopropoxy)-9H-purin-8-yl)phenoxy)methyl)thiazole-4-carboxylic acid]
IC50 (DLD-1 BRCA2−/− cells; [5]): 3160 nM

IC50 (DLD-1 cells; [8]): > 10000 nM
Structure (SMILES): CC1(Oc2ncnc3c2nc(-c2ccc(OCCN4CCNCC4)cc2Cl)n3Cc2cncc(Cl)c2)CC1 [Example T379, 8-(2-chloro-4-(2-(piperazin-1-yl)ethoxy)phenyl)-9-((5-chloropyridin-3-yl)methyl)-6-(1-methylcyclopropoxy)-9H-purine]
IC50 (DLD-1 BRCA2−/− cells; [7]): 251 nM

IC50 (DLD-1 cells; [6]): > 10000 nM
Structure (SMILES): Cc1cnc(Cn2c(-c3ccc(OC4CCN(C)CC4)cc3Cl)nc3c(OC4(C)CC4)ncnc32)s1 [Example T241, 2-((8-(2-chloro-4-((1-methylpiperidin-4-yl)oxy)phenyl)-6-(1-methylcyclopropoxy)-9H-purin-9-yl)methyl)-5-methylthiazole]
IC50 (DLD-1 BRCA2−/− cells; [5]): 316 nM

IC50 (DLD-1 cells; DLD-1, second proliferation column, DLD-1 BRCA2 wt control, read-out: POLQ PD Prolif Lumin (converted)): > 10000 nM
Structure (SMILES): Cc1ccnc(Cn2c(-c3ccc(OCCCN4CCCC4)cc3Cl)nc3c(OC4(C)CC4)ncnc32)c1 [Example T590, 8-(2-chloro-4-(3-(pyrrolidin-1-yl)propoxy)phenyl)-6-(1-methylcyclopropoxy)-9-((4-methylpyridin-2-yl)methyl)-9H-purine]
IC50 (DLD-1 BRCA2−/− cells; DLD-1, first proliferation column, DLD-1 BRCA2-/-, read-out: POLQ PD Prolif Lumin (converted)): 251 nM

IC50 (DLD-1 cells; [10]): 3980 nM
Structure (SMILES): CN1CCCC(Oc2ccc(-c3nc4c(OC5(C)CC5)ncnc4n3Cc3ccccc3)c(Cl)c2)CC1 (single isomer, unassigned) [Example D13, 9-benzyl-8-(2-chloro-4-((1-methylazepan-4-yl)oxy)phenyl)-6-(1-methylcyclopropoxy)-9H-purine]
IC50 (DLD-1 BRCA2−/− cells; [9]): 126 nM

Structure (SMILES): CC1(Oc2ncnc3c2nc(-c2cccc(OCCCCOCC(=O)O)c2Cl)n3Cc2cccc(Cl)c2)CC1 [Example T448, 2-(4-(2-chloro-3-(9-(3-chlorobenzyl)-6-(1-methylcyclopropoxy)-9H-purin-8-yl)phenoxy)butoxy)acetic acid]
IC50 (DLD-1 BRCA2−/− cells; DLD-1, proliferation, luminescence, taken as DLD-1 BRCA2-/-, read-out: POLQ PD Prolif Lumin (converted)): 79.4 nM
IC50 (DLD-1 cells; DLD-1, proliferation, luminescence, second Prolif column (c6), taken as DLD-1 BRCA2 wt control, read-out: POLQ PD Prolif Lumin (converted)): > 10000 nM

IC50 (DLD-1 cells; [8]): > 10000 nM
Structure (SMILES): Cc1ccnc(Cn2c(-c3ccc(CCN4CC(O)C4)cc3Cl)nc3c(OC4(C)CC4)ncnc32)c1 [Example T355, 1-(3-chloro-4-(6-(1-methylcyclopropoxy)-9-((4-methylpyridin-2-yl)methyl)-9H-purin-8-yl)phenethyl)azetidin-3-ol]
IC50 (DLD-1 BRCA2−/− cells; [7]): 631 nM

IC50 (DLD-1 cells; [4]): > 10000 nM
Structure (SMILES): COc1ccc(C#N)cc1Cn1c(-c2ccc(OCCC(C)C(=O)O)cc2Cl)nc2c(OC3(C)CC3)ncnc21 (racemic) [Example U14, 4-(3-chloro-4-(9-(5-cyano-2-methoxybenzyl)-6-(1-methylcyclopropoxy)-9H-purin-8-yl)phenoxy)-2-methylbutanoic acid]
IC50 (DLD-1 BRCA2−/− cells; [3]): 398 nM

IC50 (DLD-1 cells; [10]): 2510 nM
Structure (SMILES): CC1(Oc2ncnc3c2nc(-c2ccc(OC[C@H]4CCCN4)cc2Cl)n3Cc2ccccc2)CC1 [Example D25, (R)-9-benzyl-8-(2-chloro-4-(pyrrolidin-2-ylmethoxy)phenyl)-6-(1-methylcyclopropoxy)-9H-purine]
IC50 (DLD-1 BRCA2−/− cells; [9]): 100 nM

IC50 (DLD-1 cells; [10]): > 10000 nM
Structure (SMILES): Cc1cccc(Cn2c(-c3ccc(OCCN4CCNCC4)cc3Cl)nc3c(OC4(C)CC4)ncnc32)n1 [Example K7, 8-(2-chloro-4-(2-(piperazin-1-yl)ethoxy)phenyl)-6-(1-methylcyclopropoxy)-9-((6-methylpyridin-2-yl)methyl)-9H-purine]
IC50 (DLD-1 BRCA2−/− cells; [9]): 1260 nM

IC50 (DLD-1 cells; [10]): 3980 nM
Structure (SMILES): C#Cc1cc(OCCN2CCN(C)CC2)ccc1-c1nc2c(OC3(C)CC3)ncnc2n1Cc1ccccc1 [Example H9, 9-benzyl-8-(2-ethynyl-4-(2-(4-methylpiperazin-1-yl)ethoxy)phenyl)-6-(1-methylcyclopropoxy)-9H-purine]
IC50 (DLD-1 BRCA2−/− cells; [9]): 501 nM

IC50 (DLD-1 cells; [10]): > 10000 nM
Structure (SMILES): CNC(=O)c1ccc(-c2nc3c(OC4(C)CC4)ncnc3n2Cc2ccccc2)c(Cl)c1 [Example N2, 4-(9-benzyl-6-(1-methylcyclopropoxy)-9H-purin-8-yl)-3-chloro-N-methylbenzamide]
IC50 (DLD-1 BRCA2−/− cells; [9]): 251 nM

IC50 (DLD-1 cells; DLD-1, DLD1 BRCA2 wt cells, mean, read-out: POLQ PD Prolif Lumin DLD1 mean PIC50 (converted)): > 10000 nM
Structure (SMILES): Cc1ccnc(Cn2c(-c3ccc(S(C)(=O)=O)cc3Cl)nc3c(OC4(C)CC4)ncnc32)c1 [Example T16, 8-(2-chloro-4-(methylsulfonyl)phenyl)-6-(1-methylcyclopropoxy)-9-((4-methylpyridin-2-yl)methyl)-9H-purine]
IC50 (DLD-1 BRCA2−/− cells; DLD-1, DLD-1 BRCA2 −/− cells, mean, read-out: POLQ PD Prolif Lumin BRCA2 −/− mean pIC50 (converted)): 794 nM

IC50 (DLD-1 cells; [2]): > 10000 nM
Structure (SMILES): Cc1ccnc(Cn2c(-c3ccc(OCCCN4CC(O)C4)cc3Cl)nc3c(OC4(C)CC4)ncnc32)c1 [Example T513, 1-(3-(3-chloro-4-(6-(1-methylcyclopropoxy)-9-((4-methylpyridin-2-yl)methyl)-9H-purin-8-yl)phenoxy)propyl)azetidin-3-ol]
IC50 (DLD-1 BRCA2−/− cells; [1]): 316 nM

IC50 (DLD-1 cells; [6]): > 10000 nM
Structure (SMILES): CC(CCOc1ccc(-c2nc3c(OC4(C)CC4)ncnc3n2Cc2cc(Cl)ccc2Cl)c(Cl)c1)C(=O)O (racemic) [Example T276, 4-(3-chloro-4-(9-(2,5-dichlorobenzyl)-6-(1-methylcyclopropoxy)-9H-purin-8-yl)phenoxy)-2-methylbutanoic acid]
IC50 (DLD-1 BRCA2−/− cells; [5]): 63.1 nM

IC50 (DLD-1 cells; [10]): 3160 nM
Structure (SMILES): CC1(Oc2ncnc3c2nc(-c2ccc(OCCN4CC[C@@H](O)C4)cc2Cl)n3Cc2ccccc2)CC1 [Example H13, (R)-1-(2-(4-(9-benzyl-6-(1-methylcyclopropoxy)-9H-purin-8-yl)-3-chlorophenoxy)ethyl)pyrrolidin-3-ol]
IC50 (DLD-1 BRCA2−/− cells; [9]): 100 nM
